In paper PMC6886798, “Expression of myeloid Src-family kinases is associated with poor prognosis in AML and influences Flt3-ITD kinase inhibitor acquired resistance” (PLoS ONE, 2019):

Experiments:
Experiment in all cases: KINOMEscan
Assay type in all cases: binding
Settings in all cases: 1.0 µM
[1] = molecular target: T1, AKT1 (Homo sapiens, UniProt P31749)
T1 construct: purchased Eurofins/DiscoverX KINOMEscan scanMAX
Method: (§1) Kinase retention to the immobilized ligand is then measured using quantitative real-time PCR for each kinase-specific DNA barcode.

[2] = molecular target: T2, AURKA (Homo sapiens, UniProt O14965)
T2 construct: purchased Eurofins/DiscoverX KINOMEscan scanMAX
Method: as §1

[3] = molecular target: T3, CDK4-cyclinD3 (Homo sapiens, UniProt P11802)
T3 construct: purchased Eurofins/DiscoverX KINOMEscan scanMAX
Method: as §1

[4] = molecular target: T4, CSK (Homo sapiens, UniProt P41240)
T4 construct: purchased Eurofins/DiscoverX KINOMEscan scanMAX
Method: as §1

[5] = molecular target: T5, CSNK2A2 (Homo sapiens, UniProt P19784)
T5 construct: purchased Eurofins/DiscoverX KINOMEscan scanMAX
Method: as §1

[6] = molecular target: T6, DCAMKL3 (Homo sapiens, UniProt Q9C098)
T6 construct: purchased Eurofins/DiscoverX KINOMEscan scanMAX
Method: as §1

[7] = molecular target: T7, EPHA5 (Homo sapiens, UniProt P54756)
T7 construct: purchased Eurofins/DiscoverX KINOMEscan scanMAX
Method: as §1

[8] = molecular target: T8, ERK4 (Homo sapiens, UniProt P31152)
T8 construct: purchased Eurofins/DiscoverX KINOMEscan scanMAX
Method: as §1

[9] = molecular target: T9, FLT3(D835V) (Homo sapiens, UniProt P36888, D835V)
T9 construct: purchased Eurofins/DiscoverX KINOMEscan scanMAX
Method: as §1

[10] = molecular target: T10, FLT3(N841I) (Homo sapiens, UniProt P36888, N841I)
T10 construct: purchased Eurofins/DiscoverX KINOMEscan scanMAX
Method: as §1

[11] = molecular target: T11, GRK2 (Homo sapiens, UniProt P25098)
T11 construct: purchased Eurofins/DiscoverX KINOMEscan scanMAX
Method: as §1

[12] = molecular target: T12, GSK3A (Homo sapiens, UniProt P49840)
T12 construct: purchased Eurofins/DiscoverX KINOMEscan scanMAX
Method: as §1

[13] = molecular target: T13, HIPK1 (Homo sapiens, UniProt Q86Z02)
T13 construct: purchased Eurofins/DiscoverX KINOMEscan scanMAX
Method: as §1

[14] = molecular target: T14, JNK3 (Homo sapiens, UniProt P53779)
T14 construct: purchased Eurofins/DiscoverX KINOMEscan scanMAX
Method: as §1

[15] = molecular target: T15, KIT (Homo sapiens, UniProt P10721)
T15 construct: purchased Eurofins/DiscoverX KINOMEscan scanMAX
Method: as §1

[16] = molecular target: T16, KIT(A829P) (Homo sapiens, UniProt P10721, A829P)
T16 construct: purchased Eurofins/DiscoverX KINOMEscan scanMAX
Method: as §1

[17] = molecular target: T17, KIT(L576P) (Homo sapiens, UniProt P10721, L576P)
T17 construct: purchased Eurofins/DiscoverX KINOMEscan scanMAX
Method: as §1

[18] = molecular target: T18, LATS1 (Homo sapiens, UniProt O95835)
T18 construct: purchased Eurofins/DiscoverX KINOMEscan scanMAX
Method: as §1

[19] = molecular target: T19, LATS2 (Homo sapiens, UniProt Q9NRM7)
T19 construct: purchased Eurofins/DiscoverX KINOMEscan scanMAX
Method: as §1

[20] = molecular target: T20, LRRK2 (Homo sapiens, UniProt Q5S007)
T20 construct: purchased Eurofins/DiscoverX KINOMEscan scanMAX
Method: as §1

[21] = molecular target: T21, LRRK2(G2019S) (Homo sapiens, UniProt Q5S007, G2019S)
T21 construct: purchased Eurofins/DiscoverX KINOMEscan scanMAX
Method: as §1

[22] = molecular target: T22, MAK (Homo sapiens, UniProt P20794)
T22 construct: purchased Eurofins/DiscoverX KINOMEscan scanMAX
Method: as §1

[23] = molecular target: T23, MAP4K2 (Homo sapiens, UniProt Q12851)
T23 construct: purchased Eurofins/DiscoverX KINOMEscan scanMAX
Method: as §1

[24] = molecular target: T24, MARK1 (Homo sapiens, UniProt Q9P0L2)
T24 construct: purchased Eurofins/DiscoverX KINOMEscan scanMAX
Method: as §1

[25] = molecular target: T25, MEK1 (Homo sapiens, UniProt Q02750)
T25 construct: purchased Eurofins/DiscoverX KINOMEscan scanMAX
Method: as §1

[26] = molecular target: T26, MST2 (Homo sapiens, UniProt Q13188)
T26 construct: purchased Eurofins/DiscoverX KINOMEscan scanMAX
Method: as §1

[27] = molecular target: T27, MYO3B (Homo sapiens, UniProt Q8WXR4)
T27 construct: purchased Eurofins/DiscoverX KINOMEscan scanMAX
Method: as §1

[28] = molecular target: T28, PAK3 (Homo sapiens, UniProt O75914)
T28 construct: purchased Eurofins/DiscoverX KINOMEscan scanMAX
Method: as §1

[29] = molecular target: T29, PHKG1 (Homo sapiens, UniProt Q16816)
T29 construct: purchased Eurofins/DiscoverX KINOMEscan scanMAX
Method: as §1

[30] = molecular target: T30, PIK3CA (Homo sapiens, UniProt P42336)
T30 construct: purchased Eurofins/DiscoverX KINOMEscan scanMAX
Method: as §1

[31] = molecular target: T31, PIK3CA(C420R) (Homo sapiens, UniProt P42336, C420R)
T31 construct: purchased Eurofins/DiscoverX KINOMEscan scanMAX
Method: as §1

[32] = molecular target: T32, PIK3CB (Homo sapiens, UniProt P42338)
T32 construct: purchased Eurofins/DiscoverX KINOMEscan scanMAX
Method: as §1

[33] = molecular target: T33, PIP5K1A (Homo sapiens, UniProt Q99755)
T33 construct: purchased Eurofins/DiscoverX KINOMEscan scanMAX
Method: as §1

[34] = molecular target: T34, PRKCQ (Homo sapiens, UniProt Q04759)
T34 construct: purchased Eurofins/DiscoverX KINOMEscan scanMAX
Method: as §1

[35] = molecular target: T35, RET(V804L) (Homo sapiens, UniProt P07949, V804L)
T35 construct: purchased Eurofins/DiscoverX KINOMEscan scanMAX
Method: as §1

[36] = molecular target: T36, RIOK2 (Homo sapiens, UniProt Q9BVS4)
T36 construct: purchased Eurofins/DiscoverX KINOMEscan scanMAX
Method: as §1

[37] = molecular target: T37, RIPK5 (Homo sapiens, UniProt Q6XUX3)
T37 construct: purchased Eurofins/DiscoverX KINOMEscan scanMAX
Method: as §1

[38] = molecular target: T38, ROCK2 (Homo sapiens, UniProt O75116)
T38 construct: purchased Eurofins/DiscoverX KINOMEscan scanMAX
Method: as §1

[39] = molecular target: T39, SGK (Homo sapiens, UniProt O00141)
T39 construct: purchased Eurofins/DiscoverX KINOMEscan scanMAX
Method: as §1

[40] = molecular target: T40, SYK (Homo sapiens, UniProt P43405)
T40 construct: purchased Eurofins/DiscoverX KINOMEscan scanMAX
Method: as §1

[41] = molecular target: T41, TAOK1 (Homo sapiens, UniProt Q7L7X3)
T41 construct: purchased Eurofins/DiscoverX KINOMEscan scanMAX
Method: as §1

[42] = molecular target: T42, TLK2 (Homo sapiens, UniProt Q86UE8)
T42 construct: purchased Eurofins/DiscoverX KINOMEscan scanMAX
Method: as §1

[43] = molecular target: T43, p38-beta (Homo sapiens, UniProt Q15759)
T43 construct: purchased Eurofins/DiscoverX KINOMEscan scanMAX
Method: as §1

T29 sequence (Q16816 whole entry): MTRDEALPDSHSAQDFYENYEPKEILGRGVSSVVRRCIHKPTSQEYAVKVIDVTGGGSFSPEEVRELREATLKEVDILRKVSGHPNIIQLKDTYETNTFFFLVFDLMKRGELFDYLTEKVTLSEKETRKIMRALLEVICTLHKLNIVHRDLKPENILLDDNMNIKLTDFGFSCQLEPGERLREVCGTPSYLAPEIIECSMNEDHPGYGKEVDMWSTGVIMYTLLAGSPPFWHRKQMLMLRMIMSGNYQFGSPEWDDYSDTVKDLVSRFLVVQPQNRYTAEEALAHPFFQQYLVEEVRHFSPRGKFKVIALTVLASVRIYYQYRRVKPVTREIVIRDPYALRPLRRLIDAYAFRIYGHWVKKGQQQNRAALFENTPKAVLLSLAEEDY
T41 sequence (Q7L7X3 whole entry): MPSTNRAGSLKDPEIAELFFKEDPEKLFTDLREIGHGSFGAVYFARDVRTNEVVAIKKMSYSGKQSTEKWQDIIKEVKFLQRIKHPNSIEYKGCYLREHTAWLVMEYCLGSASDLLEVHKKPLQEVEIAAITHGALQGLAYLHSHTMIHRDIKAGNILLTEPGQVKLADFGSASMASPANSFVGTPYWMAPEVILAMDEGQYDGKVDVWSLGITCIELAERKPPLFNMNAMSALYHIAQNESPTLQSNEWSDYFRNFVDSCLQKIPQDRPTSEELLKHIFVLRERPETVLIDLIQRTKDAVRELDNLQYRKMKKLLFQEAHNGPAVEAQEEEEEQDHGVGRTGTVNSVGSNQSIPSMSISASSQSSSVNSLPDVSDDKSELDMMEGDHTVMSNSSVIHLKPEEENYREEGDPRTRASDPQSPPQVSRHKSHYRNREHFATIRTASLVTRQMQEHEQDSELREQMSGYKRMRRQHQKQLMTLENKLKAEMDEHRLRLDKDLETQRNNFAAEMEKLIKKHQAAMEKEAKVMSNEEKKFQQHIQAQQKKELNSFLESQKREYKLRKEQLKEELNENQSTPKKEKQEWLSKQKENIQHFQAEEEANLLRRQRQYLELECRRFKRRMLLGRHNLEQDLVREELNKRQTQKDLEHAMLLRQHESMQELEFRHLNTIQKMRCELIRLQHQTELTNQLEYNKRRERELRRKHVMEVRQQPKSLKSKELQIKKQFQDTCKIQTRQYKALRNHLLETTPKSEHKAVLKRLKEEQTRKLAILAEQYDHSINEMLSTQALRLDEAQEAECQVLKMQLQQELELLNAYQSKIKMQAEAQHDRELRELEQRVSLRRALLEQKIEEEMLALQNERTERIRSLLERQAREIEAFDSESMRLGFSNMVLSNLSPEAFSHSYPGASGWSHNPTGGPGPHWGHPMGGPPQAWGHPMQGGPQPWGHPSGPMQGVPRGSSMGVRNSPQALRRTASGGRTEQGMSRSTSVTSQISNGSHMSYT
T15 sequence (P10721 26-976): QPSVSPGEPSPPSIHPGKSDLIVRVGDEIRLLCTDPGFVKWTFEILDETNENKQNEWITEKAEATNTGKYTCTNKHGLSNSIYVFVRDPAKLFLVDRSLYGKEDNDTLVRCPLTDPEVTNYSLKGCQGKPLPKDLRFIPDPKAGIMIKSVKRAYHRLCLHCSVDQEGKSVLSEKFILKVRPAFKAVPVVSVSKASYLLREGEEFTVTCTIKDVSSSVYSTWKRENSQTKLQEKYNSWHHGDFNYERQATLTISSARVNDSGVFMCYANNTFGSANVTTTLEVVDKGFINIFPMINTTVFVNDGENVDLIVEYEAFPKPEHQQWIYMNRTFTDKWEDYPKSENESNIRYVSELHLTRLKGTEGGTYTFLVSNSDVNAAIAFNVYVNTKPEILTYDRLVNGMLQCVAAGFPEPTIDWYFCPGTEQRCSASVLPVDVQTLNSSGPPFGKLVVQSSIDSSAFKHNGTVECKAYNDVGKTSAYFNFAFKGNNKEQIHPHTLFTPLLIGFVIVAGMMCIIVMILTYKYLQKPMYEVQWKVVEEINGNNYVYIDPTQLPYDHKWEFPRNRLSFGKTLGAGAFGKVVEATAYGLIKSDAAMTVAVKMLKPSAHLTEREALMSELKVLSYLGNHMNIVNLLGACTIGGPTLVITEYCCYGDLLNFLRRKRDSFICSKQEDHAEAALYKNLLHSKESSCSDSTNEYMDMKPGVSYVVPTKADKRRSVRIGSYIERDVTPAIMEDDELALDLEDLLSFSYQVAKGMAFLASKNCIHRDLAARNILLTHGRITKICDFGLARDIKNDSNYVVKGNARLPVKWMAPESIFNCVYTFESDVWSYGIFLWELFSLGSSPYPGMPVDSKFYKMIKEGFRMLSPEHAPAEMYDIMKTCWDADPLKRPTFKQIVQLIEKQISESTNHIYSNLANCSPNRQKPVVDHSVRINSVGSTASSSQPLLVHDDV
T39 sequence (O00141 whole entry): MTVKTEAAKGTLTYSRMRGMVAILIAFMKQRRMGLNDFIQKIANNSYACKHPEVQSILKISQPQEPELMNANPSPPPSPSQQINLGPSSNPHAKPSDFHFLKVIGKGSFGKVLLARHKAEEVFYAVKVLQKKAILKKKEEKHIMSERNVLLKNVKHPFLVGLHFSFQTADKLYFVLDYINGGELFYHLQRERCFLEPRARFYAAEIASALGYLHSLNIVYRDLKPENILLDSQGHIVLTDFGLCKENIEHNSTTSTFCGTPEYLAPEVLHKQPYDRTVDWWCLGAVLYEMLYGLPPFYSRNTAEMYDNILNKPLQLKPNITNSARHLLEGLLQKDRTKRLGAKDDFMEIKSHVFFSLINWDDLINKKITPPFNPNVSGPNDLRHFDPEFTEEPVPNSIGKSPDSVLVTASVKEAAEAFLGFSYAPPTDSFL
T34 sequence (Q04759 whole entry): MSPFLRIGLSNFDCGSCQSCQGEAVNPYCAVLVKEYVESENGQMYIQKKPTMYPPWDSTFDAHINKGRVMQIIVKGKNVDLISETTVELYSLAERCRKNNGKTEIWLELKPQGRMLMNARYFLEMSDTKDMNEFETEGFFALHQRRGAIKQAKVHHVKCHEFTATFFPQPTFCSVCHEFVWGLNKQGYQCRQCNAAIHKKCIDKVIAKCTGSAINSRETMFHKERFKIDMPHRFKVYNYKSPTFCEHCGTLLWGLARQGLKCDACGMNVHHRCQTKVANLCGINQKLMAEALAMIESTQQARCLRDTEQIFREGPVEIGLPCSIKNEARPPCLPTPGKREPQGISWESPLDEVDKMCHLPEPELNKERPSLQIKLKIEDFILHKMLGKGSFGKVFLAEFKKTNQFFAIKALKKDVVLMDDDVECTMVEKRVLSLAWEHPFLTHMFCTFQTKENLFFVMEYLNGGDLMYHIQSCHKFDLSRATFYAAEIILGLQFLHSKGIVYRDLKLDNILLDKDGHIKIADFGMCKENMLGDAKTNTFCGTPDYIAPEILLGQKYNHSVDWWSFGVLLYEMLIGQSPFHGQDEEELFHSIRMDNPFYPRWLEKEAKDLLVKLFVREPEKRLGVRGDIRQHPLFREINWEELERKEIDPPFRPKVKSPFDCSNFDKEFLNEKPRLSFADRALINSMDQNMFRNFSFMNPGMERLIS
T30 sequence (P42336 whole entry): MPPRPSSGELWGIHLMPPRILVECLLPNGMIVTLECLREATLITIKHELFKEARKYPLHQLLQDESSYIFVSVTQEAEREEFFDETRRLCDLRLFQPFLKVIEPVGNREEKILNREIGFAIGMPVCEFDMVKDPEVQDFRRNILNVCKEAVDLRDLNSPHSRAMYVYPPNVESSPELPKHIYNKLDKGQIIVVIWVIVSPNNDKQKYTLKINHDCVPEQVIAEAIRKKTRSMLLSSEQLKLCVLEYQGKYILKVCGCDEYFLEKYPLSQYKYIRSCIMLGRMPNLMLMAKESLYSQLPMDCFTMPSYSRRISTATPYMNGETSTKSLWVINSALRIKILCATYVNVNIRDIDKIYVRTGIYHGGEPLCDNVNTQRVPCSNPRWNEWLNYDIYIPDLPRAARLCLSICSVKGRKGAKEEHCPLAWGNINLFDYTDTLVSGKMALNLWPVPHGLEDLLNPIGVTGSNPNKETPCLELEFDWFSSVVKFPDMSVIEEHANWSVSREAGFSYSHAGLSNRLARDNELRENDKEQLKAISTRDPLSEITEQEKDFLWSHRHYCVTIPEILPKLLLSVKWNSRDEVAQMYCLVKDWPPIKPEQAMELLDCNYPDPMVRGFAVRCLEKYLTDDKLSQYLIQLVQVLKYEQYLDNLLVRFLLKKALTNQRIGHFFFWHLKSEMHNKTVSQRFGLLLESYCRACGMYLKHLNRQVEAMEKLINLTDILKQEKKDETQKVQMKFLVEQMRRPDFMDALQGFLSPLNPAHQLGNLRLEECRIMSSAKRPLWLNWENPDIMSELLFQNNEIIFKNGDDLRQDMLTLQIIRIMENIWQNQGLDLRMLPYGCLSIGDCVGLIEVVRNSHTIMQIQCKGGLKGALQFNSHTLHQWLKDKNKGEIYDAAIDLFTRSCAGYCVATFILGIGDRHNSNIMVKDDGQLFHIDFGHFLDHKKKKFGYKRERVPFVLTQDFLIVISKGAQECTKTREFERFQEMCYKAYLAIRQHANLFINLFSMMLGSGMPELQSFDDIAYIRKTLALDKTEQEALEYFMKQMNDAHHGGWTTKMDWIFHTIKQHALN
T43 sequence (Q15759 whole entry): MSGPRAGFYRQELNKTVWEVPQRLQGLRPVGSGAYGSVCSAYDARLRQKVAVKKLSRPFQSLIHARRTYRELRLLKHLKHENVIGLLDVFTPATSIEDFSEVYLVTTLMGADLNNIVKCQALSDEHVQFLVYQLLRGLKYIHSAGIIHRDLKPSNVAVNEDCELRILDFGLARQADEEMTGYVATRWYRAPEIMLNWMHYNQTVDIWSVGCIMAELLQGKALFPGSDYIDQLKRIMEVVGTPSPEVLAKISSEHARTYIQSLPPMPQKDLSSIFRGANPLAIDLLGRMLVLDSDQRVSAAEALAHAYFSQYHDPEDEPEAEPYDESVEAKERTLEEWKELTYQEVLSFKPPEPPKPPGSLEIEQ
T17 sequence (P10721 26-976 L576P): as the sequence (P10721 26-976) above, with L551P counted along it
T31 sequence (P42336 whole entry C420R): as the sequence (P42336 whole entry) above, with C420R counted along it
T16 sequence (P10721 26-976 A829P): as the sequence (P10721 26-976) above, with A804P counted along it

CN1CCN(C2CCC(n3cc(-c4ccc(Oc5ccccc5)cc4)c4c(N)ncnc43)CC2)CC1 (stereo not shown) [A-419259]
% Control [1]: 100% | % Control [2]: 36% | % Control [3]: 81% | % Control [4]: 2.1% | % Control [5]: 66% | % Control [6]: 100% | % Control [7]: 80% | % Control [8]: 56% | % Control [9]: 0.15% | % Control [10]: 5.3% | % Control [11]: 100% | % Control [12]: 100% | % Control [13]: 80% | % Control [14]: 99% | % Control [15]: 0.15% | % Control [16]: 5.9% | % Control [17]: 0% | % Control [18]: 30% | % Control [19]: 18% | % Control [20]: 98% | % Control [21]: 100% | % Control [22]: 100% | % Control [23]: 98% | % Control [24]: 82% | % Control [25]: 0.1% | % Control [26]: 82% | % Control [27]: 17% | % Control [28]: 36% | % Control [29]: 99% | % Control [30]: 100% | % Control [31]: 100% | % Control [32]: 64% | % Control [33]: 100% | % Control [34]: 66% | % Control [35]: 24% | % Control [36]: 100% | % Control [37]: 7.1% | % Control [38]: 62% | % Control [39]: 75% | % Control [40]: 100% | % Control [41]: 100% | % Control [42]: 100% | % Control [43]: 100%
